In ChEMBL document CHEMBL3396994, “Novel 4-aryl-pyrido[1,2-c]pyrimidines with dual SSRI and 5-HT1A activity. Part 4” (Eur J Med Chem, 2015):

What was measured:
[1] = target: T1, 5-hydroxytryptamine receptor 1A (Rattus norvegicus, UniProt P19327); test: Displacement of [3H]8-OH-DPAT from rat brain hippocampus 5-HT1A receptor by radioligand binding assay
T1 sequence (P19327 whole entry): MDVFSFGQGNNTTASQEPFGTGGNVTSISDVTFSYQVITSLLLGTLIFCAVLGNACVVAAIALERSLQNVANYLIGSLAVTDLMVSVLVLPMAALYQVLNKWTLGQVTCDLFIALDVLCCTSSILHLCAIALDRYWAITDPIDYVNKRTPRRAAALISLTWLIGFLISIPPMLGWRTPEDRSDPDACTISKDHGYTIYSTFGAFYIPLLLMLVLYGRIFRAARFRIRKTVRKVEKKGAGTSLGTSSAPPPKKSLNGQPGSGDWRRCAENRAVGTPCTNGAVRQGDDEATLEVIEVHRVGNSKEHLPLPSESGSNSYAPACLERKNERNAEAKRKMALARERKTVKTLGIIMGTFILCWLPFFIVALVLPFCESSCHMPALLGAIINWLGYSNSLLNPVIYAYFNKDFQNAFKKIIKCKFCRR

[2] = target: Sodium-dependent serotonin transporter (Rattus norvegicus, UniProt P31652); test: Displacement of [3H]citalopram from rat brain cerebral cortex SERT by liquid scintillation counting analysis; assay type: tissue-based
[3] = Metabolic stability in human liver microsomes assessed as compound remaining at 10 uM after 60 mins by LC/MS analysis; assay type: ADME; details: read-out: Stability
[4] = Half life in human liver microsomes at 10 uM by LC/MS analysis; assay type: ADME

Sodium-dependent serotonin transporter, sequence (P31652 whole entry): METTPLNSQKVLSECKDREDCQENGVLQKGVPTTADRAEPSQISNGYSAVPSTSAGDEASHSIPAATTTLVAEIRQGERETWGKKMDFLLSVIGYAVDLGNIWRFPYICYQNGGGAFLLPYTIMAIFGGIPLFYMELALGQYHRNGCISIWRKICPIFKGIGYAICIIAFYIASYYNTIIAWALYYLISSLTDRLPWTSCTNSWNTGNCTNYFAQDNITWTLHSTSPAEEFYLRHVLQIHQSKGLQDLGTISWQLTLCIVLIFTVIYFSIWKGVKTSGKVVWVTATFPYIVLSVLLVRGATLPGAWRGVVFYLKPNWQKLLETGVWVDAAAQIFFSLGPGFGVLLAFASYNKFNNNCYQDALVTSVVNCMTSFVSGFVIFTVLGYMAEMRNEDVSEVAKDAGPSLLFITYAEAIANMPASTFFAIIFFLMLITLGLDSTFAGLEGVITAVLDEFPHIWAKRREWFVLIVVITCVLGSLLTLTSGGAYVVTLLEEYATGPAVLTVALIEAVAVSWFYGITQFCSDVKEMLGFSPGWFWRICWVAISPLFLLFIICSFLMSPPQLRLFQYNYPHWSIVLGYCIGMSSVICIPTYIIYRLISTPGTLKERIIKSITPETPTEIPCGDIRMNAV

Row | SMILES | Ki [1] | Ki [2] | remaining at 1 h, 10 µM [3] | half-life at 10 µM [4]
1 | COc1ccccc1-c1c(=O)n(CCCCN2CCC(c3c[nH]c4ccc(F)cc34)CC2)c(=O)n2ccccc12 | 5.6 nM | 20.7 nM |  | 
2 | O=c1c(-c2ccccc2F)c2ccccn2c(=O)n1CCCCN1CC=C(c2c[nH]c3ccc(Cl)cc23)CC1 | 97.1 nM | 435 nM |  | 
3 | O=c1c(-c2ccc(Cl)cc2)c2ccccn2c(=O)n1CCCCN1CCC(c2c[nH]c3ccc(F)cc23)CC1 | 84.4 nM | 25.5 nM |  | 
4 | O=c1c(-c2ccccc2)c2ccccn2c(=O)n1CCCCN1CC=C(c2c[nH]c3ccc(F)cc23)CC1 | 118 nM | 27.1 nM | 63.4% | 1.37 h
5 | O=c1c(-c2ccccc2)c2ccccn2c(=O)n1CCCCN1CC=C(c2c[nH]c3ccc(Br)cc23)CC1 | 40.1 nM | 840 nM | 63.2% | 1.37 h
6 | COc1ccccc1-c1c(=O)n(CCCCN2CC=C(c3c[nH]c4ccc(Br)cc34)CC2)c(=O)n2ccccc12 | 33.1 nM | 1200 nM |  | 
7 | Cc1ccc(-c2c(=O)n(CCCCN3CC=C(c4c[nH]c5ccc(Cl)cc45)CC3)c(=O)n3ccccc23)cc1 | 267 nM | 408 nM | 64.3% | 1.41 h
8 | O=c1c(-c2ccc(F)cc2)c2ccccn2c(=O)n1CCCCN1CCC(c2c[nH]c3ccc(F)cc23)CC1 | 12.8 nM | 19.4 nM |  | 
9 | COc1ccc(-c2c(=O)n(CCCCN3CC=C(c4c[nH]c5ccc(Cl)cc45)CC3)c(=O)n3ccccc23)cc1 | 278 nM | 312 nM |  | 
10 | Cc1ccc(-c2c(=O)n(CCCCN3CC=C(c4c[nH]c5ccc(F)cc45)CC3)c(=O)n3ccccc23)cc1 | 153 nM | 30.3 nM |  | 
11 | O=c1c(-c2ccc(F)cc2)c2ccccn2c(=O)n1CCCCN1CC=C(c2c[nH]c3ccc(F)cc23)CC1 | 220 nM | 11.3 nM |  | 
12 | O=c1c(-c2ccccc2F)c2ccccn2c(=O)n1CCCCN1CC=C(c2c[nH]c3ccc(Br)cc23)CC1 | 32.5 nM | 836 nM |  | 
13 | O=c1c(-c2ccc(Cl)cc2)c2ccccn2c(=O)n1CCCCN1CC=C(c2c[nH]c3ccc(F)cc23)CC1 | 265 nM | 58.2 nM | 50.2% | 1 h
14 | O=c1c(-c2ccc(Cl)cc2)c2ccccn2c(=O)n1CCCCN1CC=C(c2c[nH]c3ccc(Br)cc23)CC1 | 61.6 nM | 1000 nM |  | 
15 | O=c1c(-c2ccccc2Cl)c2ccccn2c(=O)n1CCCCN1CC=C(c2c[nH]c3ccc(Cl)cc23)CC1 | 74.4 nM | 774 nM |  | 
16 | O=c1c(-c2ccccc2F)c2ccccn2c(=O)n1CCCCN1CCC(c2c[nH]c3ccc(F)cc23)CC1 | 9.2 nM | 25.7 nM |  | 

Row | SMILES | Ki [1] | Ki [2] | remaining at 1 h, 10 µM [3] | half-life at 10 µM [4]
17 | COc1ccccc1-c1c(=O)n(CCCCN2CC=C(c3c[nH]c4ccc(F)cc34)CC2)c(=O)n2ccccc12 | 251 nM | 20.8 nM | 67.9% | 1.57 h
18 | COc1ccc(-c2c(=O)n(CCCCN3CC=C(c4c[nH]c5ccc(F)cc45)CC3)c(=O)n3ccccc23)cc1 | 81.7 nM | 15.6 nM |  | 
19 | Cc1ccccc1-c1c(=O)n(CCCCN2CC=C(c3c[nH]c4ccc(Br)cc34)CC2)c(=O)n2ccccc12 | 71.5 nM | 879 nM |  | 
20 | COc1ccc(-c2c(=O)n(CCCCN3CC=C(c4c[nH]c5ccc(Br)cc45)CC3)c(=O)n3ccccc23)cc1 | 23.1 nM | 326 nM |  | 
21 | Cc1ccccc1-c1c(=O)n(CCCCN2CC=C(c3c[nH]c4ccc(F)cc34)CC2)c(=O)n2ccccc12 | 295 nM | 58.8 nM | 60.5% | 1.26 h
22 | Cc1ccc(-c2c(=O)n(CCCCN3CCC(c4c[nH]c5ccc(F)cc45)CC3)c(=O)n3ccccc23)cc1 | 38.5 nM | 27.4 nM |  | 
23 | O=c1c(-c2ccc(F)cc2)c2ccccn2c(=O)n1CCCCN1CC=C(c2c[nH]c3ccc(Cl)cc23)CC1 | 106 nM | 329 nM |  | 
24 | COc1ccccc1-c1c(=O)n(CCCCN2CC=C(c3c[nH]c4ccc(Cl)cc34)CC2)c(=O)n2ccccc12 | 97.8 nM | 718 nM | 55.6% | 1.13 h
25 | O=c1c(-c2ccccc2)c2ccccn2c(=O)n1CCCCN1CC=C(c2c[nH]c3ccc(Cl)cc23)CC1 | 126 nM | 322 nM |  | 
26 | Cc1ccccc1-c1c(=O)n(CCCCN2CC=C(c3c[nH]c4ccc(Cl)cc34)CC2)c(=O)n2ccccc12 | 212 nM | 740 nM |  | 
27 | Cc1ccc(-c2c(=O)n(CCCCN3CC=C(c4c[nH]c5ccc(Br)cc45)CC3)c(=O)n3ccccc23)cc1 | 145 nM | 949 nM |  | 
28 | O=c1c(-c2ccccc2F)c2ccccn2c(=O)n1CCCCN1CC=C(c2c[nH]c3ccc(F)cc23)CC1 | 116 nM | 3.9 nM |  | 
29 | O=c1c(-c2ccccc2)c2ccccn2c(=O)n1CCCCN1CCC(c2c[nH]c3ccc(F)cc23)CC1 | 12.4 nM | 15.6 nM |  | 
30 | O=c1c(-c2ccc(F)cc2)c2ccccn2c(=O)n1CCCCN1CC=C(c2c[nH]c3ccc(Br)cc23)CC1 | 79.1 nM | 404 nM | 51.4% | 1.03 h
31 | O=c1c(-c2ccccc2Cl)c2ccccn2c(=O)n1CCCCN1CC=C(c2c[nH]c3ccc(F)cc23)CC1 | 127 nM | 5.2 nM |  | 
32 | O=c1c(-c2ccccc2Cl)c2ccccn2c(=O)n1CCCCN1CCC(c2c[nH]c3ccc(F)cc23)CC1 | 15.9 nM | 88.6 nM |  | 
